Assay results reported in patent US10440955B2, “Methods comprising a biocidal polyamine” (Curza Global, LLC, priority 2013, dated 2019).
Values after ≈ are worked out from the molar mass of the structure shown. Structures can show the parent of a compound that is named as a salt. Where two headings read alike, the source gives them in different places.

Assays:
biofilms of MRSA = conditions: understanding of the inventors; no own test described; cited from earlier work
MRSA [1] = experiment: MIC, 96-well CAMHB, 10^5 to 10^2 CFU/mL in 24 hours; type: cell-based, Staphylococcus aureus; conditions: Staphylococcus aureus, MRSA, read-out: MIC (MRSA)
Procedure, shortened: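 Compound exposure was 24 h at 37 °C in CAMHB with an inoculum of ~5×10^5 CFU/mL from a 0.5 McFarland; eight replicates per concentration.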

P. aeruginosa = experiment: as above; type: cell-based, Pseudomonas aeruginosa; conditions: Pseudomonas aeruginosa
Procedure, shortened: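 Broth microdilution in CAMHB with about 5×10^5 CFU/mL inoculum, incubated 24 h at 37 °C with graded polyamine compound concentrations. Surviving CFU/mL determined by plating each well on TSA for 24 h at 37 °C; n=8 per concentration.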

MRSA [2] = experiment: MIC against MRSA (as defined by CLSI); type: cell-based; conditions: Staphylococcus aureus, FIG. 25
Description: To determine the MIC of the polyamine chains alone and the synthesized compounds against MRSA and P. aeruginosa ATCC 27853, a modified protocol from the Clinical and Laboratory Standards Institute (CLSI) guideline M26-A was used. […] All data was collected using cation adjusted MHB for standardization.
As mentioned, MRSA and P. aeruginosa ATCC 27853 were grown on Columbia blood agar plates prior to experimentation. From the blood agar plates, a 0.5 McFarland standard was made of each isolate. This equated to approximately 5×10^7 cells/mL for the MRSA isolate and approximately 3×10^7 cells/mL for the P. aeruginosa ATCC 27853 isolate. Of the 0.5 McFarland stock solution, 50 μL were added to MHB. […] All tests were performed such that a final volume of 5 mL of MHB were obtained. This provided a final bacterial concentration of approximately 5×10^5 cells/mL.
Each sample was incubated in glass test tubes at 37° C. for 24 hours, then plated in duplicate on tryptic soy agar (TSA) using a 10-fold dilution series. TSA plates were further incubated 24 hours at 37° C. The number of colony forming units (CFU) that grew were counted in order to calculate the number of bacteria that were present per mL in the original MHB solution.

A. baumannii = experiment: MIC, 96-well CAMHB, 10^5 to 10^2 CFU/mL in 24 hours; type: cell-based, Acinetobacter baumannii; conditions: Acinetobacter baumannii; Table 5; read-out: MIC (A. bumannii)
Description: To determine the MIC of polyamine compounds, the protocol described herein was used.
In brief, a 0.5 McFarland of each bacterial isolate was made. A 0.5 McFarland is a measure of turbidity in a liquid sample that contains approximately 1×10^∧8 CFU/mL. The 0.5 McFarland standard was diluted in cation adjusted Mueller Hinton Broth (CAMHB), and 50 μL of broth were added to a well of a 96-well plate. In addition, 50 μL of CAMHB that contained a desired concentration of antimicrobial were also added to the well for a final volume of 100 μL and a final concentration of approximately 5×10^4 CFU/well (which equated to approximately 5×10^5 CFU/mL). Each well contained a desired amount of polyamine compound in order to experimentally determine the MIC. Each 96-well plate was incubated at 37° C. for 24 hours. The contents of each well were plated on tryptic soy agar (TSA). TSA plates were incubated for 37° C. for 24 hours after which the number of CFU were counted and used to calculate the CFU/mL that remained after exposure to varying concentrations of compound. This procedure was repeated n=8 times for each concentration of antimicrobial.
A 0.5 McFarland of A. baumannii is made. A 0.5 McFarland is a measure of turbidity in a liquid sample that contains approximately 7.5×10^7 CFU/mL. The 0.5 McFarland standard is diluted in CAMHB and 50 μL of broth is added to a well of a 96-well plate. In addition, 50 μL of CAMHB that contains a desired concentration of antimicrobial is added to the well for a final volume of 100 μL and a final concentration of approximately 5×10^4 CFU/well (which equates to approximately 5×10^5 CFU/mL). Each well contains a desired amount of CZ compound in order to experimentally determine the MIC. Each 96-well plate is incubated at 37° C. for 24 hours. The contents of each well is plated on tryptic soy agar (TSA). TSA plates is incubated at 37° C. for 24 hours after which the number of CFUs is counted and used to calculate the CFU/mL that remain after exposure to varying concentrations of compound. This procedure is repeated n=8 times for each concentration of antimicrobial. […]

[3] = system: various bacterial cell cultures; experiment: Antimicrobial activity of polyamines in hydrogel on agar lawns; type: cell-based; conditions: 0.5% CZ compound in 0.5% sodium hyaluronate gel, 500 uL on TSA lawn, 37 C for 24 hours
Description: A 0.5 McFarland standard of each bacteria was made, then individual lawns of bacteria spread onto the surface of tryptic soy agar (TSA). 500 uL of the suspended gel were placed on the center of each lawn. Plates were incubated at 37 C for 24 hours, then imaged. Images of the resulting gels are shown in FIGS. 30A to 30I show the effects of the polyamines CZ-86, CZ-100, and CZ-110 on various bacterial cell cultures.
The hydrogel that was used for those images is a LifeCore gel with 1% sodium hyaluronate (1% Sodium Hyaluronate Solution Part #82). The CZ compound was suspended in water at 1% (w/w) concentration and combined with the LifeCore gel 1:1 for a final product that contained 0.5% sodium hyaluronate and 0.5% CZ compound.

L-929 cells (ATCC CCL-1) = experiment: Minimal Essential Media (MEM) Elution cytotoxicity test; type: cell-based; conditions: Table 9A
Procedure, shortened: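 L-929 cells (ATCC CCL-1) were seeded in multiwell plates and grown to roughly 80% confluence. Test article dilutions (1:2, 1:4, 1:8, 1:16) and control extracts were applied in triplicate and incubated 48±3 hours at 37±1° C. in 5±1% CO2. Wells were scored microscopically for morphological cytotoxicity on a 0–4 scale and averaged; Pass required grade not greater than 2 per USP <87>.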

human blood = experiment: Hemolysis test with diluted human blood (ISO 10993-4); type: cell-based
Text: Procedure: The PBS used in testing was calcium and magnesium free. The method has been validated using human blood from one donor. This is in compliance with ISO 10993-4 which states due to differences in blood activity, human blood should be used where possible. Furthermore, pooling unmatched human blood from multiple donors may cause red blood cell agglutination which in turn could cause hemolysis; this supports the use of a single donor.
The blood was drawn using vacutainers containing 0.1 M sodium citrate at a ratio of 9:1 (3.2% anticoagulant to blood). The blood in this test was used within four hours of blood draw. The collected blood was refrigerated until testing was performed.
A hemoglobin standard was diluted with Drabkin's reagent to give solutions at concentrations of 0.80, 0.60, 0.40, 0.30, 0.20, 0.10, 0.02, and 0.01 mg/ml. These solutions were allowed to stand at room temperature for a minimum of five minutes. The absorbance was read on a spectrophotometer at 540 nanometers (nm). A standard curve was determined with the absorbance values and the standard concentrations of hemoglobin.
Human blood was centrifuged at 700-800×g for 15 minutes. A 1 mL aliquot of the plasma was added into 1 mL of Drabkin's reagent, and placed at room temperature for a minimum of 15 minutes. The absorbance was read on a spectrophotometer at 540 nm. The hemoglobin concentration was determined from the standard curve and then multiplied by a factor of 2 to obtain the total plasma free hemoglobin. The plasma free hemoglobin was less than 2 mg/mL (actual value 0.221 mg/mL). A 20 μL aliquot of blood was added to 5 mL of Drabkin's reagent in duplicate and allowed to stand at room temperature for a minimum of 15 minutes. The absorbance was read on a spectrophotometer at 540 nm then multiplied by 251 to account for the dilution.
Based on the plasma hemoglobin and the blood absorbance against Drabkin's reagent, the blood was diluted out to 10±1 mg/mL with PBS. To verify the blood dilution, a 300 μL aliquot of this blood was added to 4.5 mL of Drabkin's reagent in triplicate and allowed to stand at room temperature for a minimum of 15 minutes. The absorbance was read on a spectrophotometer at 540 nm then multiplied by 16 to account for the dilution.
Glass test tubes were labeled appropriately. Both samples were prepared the same way. The samples were allowed to thaw prior to testing. To each test tube, 7 mL of the test article and 1 mL of the diluted blood were added. The controls consisted of the appropriate amount of control material, 7 mL of PBS and 1 mL of blood. Three tubes were prepared for each test article and control. The tubes were incubated at 37±2° C. for 3 hours±5 minutes. Tubes were gently inverted twice at 30 minute intervals throughout the incubation period. A non-hemolytic negative control, a hemolytic positive control and a PBS blank were included.
After incubation, test articles were centrifuged at 700-800×g for 15 minutes and 1 mL of the supernatant fluid was combined with 1 mL of Drabkin's reagent and allowed to stand at room temperature for a minimum of 15 minutes. Following the centrifugation phase, the supernatant of both test articles visually appeared clear and were particulate free. The PBS blank and the negative control supernatant visually appeared clear and were particulate free. The supernatant of the positive control visually appeared red and were particulate free. The test articles and controls were read at 540 nm in a spectrophotometer.
The hemolytic index (percent hemolysis) was interpreted using the following equation:
[formula] Where: Hemoglobin Released (mg/mL)=(Optical Density×X Coefficient+Constant)×16 Hemoglobin Present (mg/ml)=Diluted Blood 10±1 mg/mL
The corrected hemolytic index was calculated by subtracting the hemolytic index of the PBS blank solution from the hemolytic index of the test article and controls. […]

[4] = Table 5, read-out: MIC (P. aeruginosa)

## CC(C)(C)CC(C)(C)c1ccc(OCCOCC[N+](C)(C)Cc2ccccc2)cc1 [benzethonium chloride]
Biofilms of MRSA
  biofilm dispersal effect (comparison): not seen

## NCCCNCc1cccc(CNCCCN)c1 [CZ-12]
MRSA [1]; Table 5
  MIC: > 100 µM
P. aeruginosa; [4]
  MIC: 50 to 100 µM (≈ 12.5 to 25 µg/mL)
MRSA [2]
  MIC: 300 µg/mL (≈ 1200 µM)

## CCCCCCCCNCCCNCCCNCc1cc(CNCCCNCCCNCCCCCCCC)cc(OCCCNCC(C)C)c1 [CZ-110, N^1,N^1′-((5-(3-(isobutylamino)propoxy)-1,3-phenylene)bis(methylene))bis(N^3-(3-(octylamino)propyl)propane-1,3-diamine)]
MRSA [1]; Table 5
  MIC: < 50 µM
A. baumannii
  MIC: < 50 µM
P. aeruginosa; [4]
  MIC: < 50 µM
[3]
  zones of inhibition in bacterial lawns: created zones of inhibition

## CCCCCCCCNCCCNCCCNCc1cccc(CNCCCNCCCNCCCCCCCC)c1 [CZ-100, N^1,N^1′-(1,3-phenylenebis(methylene))bis(N^3-(3-(octylamino)propyl)propane-1,3-diamine)]
MRSA [1]; Table 5
  MIC: < 50 µM
L-929 cells (ATCC CCL-1); 3.125 μg/mL
  Results Pass/Fail: Pass (receives a passing score (Pass) if the reactivity grade is not greater than grade 2 or a mild reactivity)
L-929 cells (ATCC CCL-1); 6.25 μg/mL
  Results Pass/Fail: Pass (receives a passing score (Pass) if the reactivity grade is not greater than grade 2 or a mild reactivity)
L-929 cells (ATCC CCL-1); 12.5 μg/mL
  Results Pass/Fail: Pass (receives a passing score (Pass) if the reactivity grade is not greater than grade 2 or a mild reactivity)
L-929 cells (ATCC CCL-1); 25 μg/mL
  Results Pass/Fail: Fail (a numerical grade greater than 2 is considered a cytotoxic effect, or a failing score (Fail))
L-929 cells (ATCC CCL-1); 1.563 (unit not given)
  Results Pass/Fail: Pass (receives a passing score (Pass) if the reactivity grade is not greater than grade 2 or a mild reactivity)
A. baumannii
  MIC: < 50 µM
P. aeruginosa; [4]
  MIC: < 50 µM
[3]
  zones of inhibition in bacterial lawns: created zones of inhibition

## NCCCNCc1ccccc1 [CZ-4, N^1-benzylpropane-1,3-diamine]
MRSA [1]; Table 5
  MIC: > 100 µM
P. aeruginosa; [4]
  MIC: > 100 µM
MRSA [2]
  MIC: > 1200 µg/mL

## CCC(CC)COc1cc(CNCCCNCCCN)cc(CNCCCNCCCN)c1 [CZ-90, N^1,N^1′-((5-(2-ethylbutoxy)-1,3-phenylene)bis(methylene))bis(N^3-(3-aminopropyl)propane-1,3-diamine), hydrochloride salt]
MRSA [1]
  MIC: < 50 µM
Human blood
  Average Hemolytic Index (% Hemolysis): 0.76 % Hemolysis
  Hemolytic Grade: non-hemolytic
  difference between the hemolytic indexes of test article and negative control: 0.00%
Human blood; 540 nm
  Average Optical Density: 0.003
Human blood; 540 nm, three tubes, 37 ± 2° C., 3 hours
  Optical Density: 0.003
Human blood; hemolytic index of the PBS blank subtracted
  Corrected Hemolytic Index (% Hemolysis): 0.00 % Hemolysis
Human blood; three tubes
  Hemolytic Index: 0.764
P. aeruginosa; read-out: MIC (P. aeruginosa), Table 5
  MIC: < 50 µM

## O=CCCCC=O [glutaraldehyde, Glutaraldehyde, reference compound]
Biofilms of MRSA
  biofilm dispersal effect (comparison): not seen
L-929 cells (ATCC CCL-1); 3.125 μg/mL
  Results Pass/Fail: Pass (receives a passing score (Pass) if the reactivity grade is not greater than grade 2 or a mild reactivity)
L-929 cells (ATCC CCL-1); 6.25 μg/mL
  Results Pass/Fail: Fail (a numerical grade greater than 2 is considered a cytotoxic effect, or a failing score (Fail))
L-929 cells (ATCC CCL-1); 12.5 μg/mL
  Results Pass/Fail: Fail (a numerical grade greater than 2 is considered a cytotoxic effect, or a failing score (Fail))
L-929 cells (ATCC CCL-1); 25 μg/mL
  Results Pass/Fail: Fail (a numerical grade greater than 2 is considered a cytotoxic effect, or a failing score (Fail))
L-929 cells (ATCC CCL-1); 1.563 (unit not given)
  Results Pass/Fail: Pass (receives a passing score (Pass) if the reactivity grade is not greater than grade 2 or a mild reactivity)
